# Results from paper PMC8071358, “Targeting of the Essential acpP, ftsZ, and rne Genes in Carbapenem-Resistant Acinetobacter baumannii by Antisense PNA Precision Antibacterials” (Biomedicines, 2021).
# Experiments:
# Assay type in all cases: cell-based, Acinetobacter baumannii
# [1] = system: acpP mRNA in CRAB AC44 strain; test: Real-time RT-PCR of target mRNA; details: AC44, 1 h treatment, normalised to 16S rRNA, against untreated control
# Protocol: (§1) Real time RT-PCR was used to determine the relative expression level of the target gene upon treatment with match BPP-PNA compared to mismatch and untreated controls. The primers for q-PCR were designed to match conserved gene sequences using the AlleleID7 software (Premier Biosoft, San Francisco, CA, USA) (Table S6). Additionally, for more accurate expression of the genes at treatment and untreated conditions, the efficacy of target gene and internal controls primers was calculated by using three consecutive dilutions of the sample cDNA and drawing a standard curve through the slope of the line. […] Statistical analysis was carried out on the gene expression levels normalized to the chosen reference gene (16S rRNA) through −∆Ct analysis. The relative expression of each gene was determined by the 2^−ΔΔCT method. We used the GenEx standard (NormFinder and GeNorm) software (bioMCC, Germany) for analyzing the data.
# (§2) An overnight culture of bacteria was diluted 1:100 in MHB medium and was grown with shaking (160 rpm) at 37 °C to reach the OD595 = 0.2. Then, the bacterial culture was treated with different concentrations of BPP-PNA for 1 h and the bacterial cells were harvested by centrifugation and the cell pellet used for RNA extraction.
# (§3) Total RNA was isolated using the GeneJET RNA purification kit (ThermoFisher Scientific, Roskilde, Denmark) following the manufacturer’s protocol. RNA samples were treated with DNase for 30 min at 37 °C (Turbo DNA-free kit Ambion/Applied Biosystems, Carlsbad, CA, USA) and then incubated at 72 °C for 5 min to inactivate the DNase. The genomic DNA (gDNA) contamination was checked by polymerase chain reaction (PCR). RNA concentrations were determined by Nanodrop spectrophotometry at 260 nm and purity was checked by determining the absorption ratios at 260/280 nm. Total RNA (0.5 μg) was reverse-transcribed to yield cDNA as template for real-time quantitative PCR using the Quanti Tect reverse transcription kit (Qiagen, Copenhagen, Denmark). The cDNA was diluted 1:50 and used as a template in the reaction. […]
# [2] = system: ftsZ mRNA in CRAB AC44 strain; test: Real-time RT-PCR of target mRNA; details: AC44, 1 h after treatment, normalised to 16S rRNA, against untreated control
# Protocol: as §1, §2, §3
# CRAB strain AC6 = test: BPP-PNA MIC, broth microdilution; details: MHB without cation (Oxoid); 37 °C, 18 h
# Summary of the method: (§4)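 Broth microdilution used an overnight culture diluted to about 5 × 10^5 CFU/mL in non-cation-adjusted Mueller Hinton Broth, mixed with 2-fold serial dilutions of BPP-PNA (16 to 0.5 µM in the dilution plate, not final). Plates were shaken at 37 °C for 18 h with OD595 read every 20 min.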
# CRAB strain AC9 = test: BPP-PNA MIC, broth microdilution; details: MHB without cation (Oxoid); 37 °C, 18 h
# Summary of the method: as §4
# CRAB strain AC7 = test: BPP-PNA MIC, broth microdilution; details: MHB without cation (Oxoid); 37 °C, 18 h
# Summary of the method: as §4
# CRAB strain AC8 = test: BPP-PNA MIC, broth microdilution; details: MHB without cation (Oxoid); 37 °C, 18 h
# Summary of the method: as §4
# CRAB strain AC4 = test: BPP-PNA MIC, broth microdilution; details: MHB without cation (Oxoid); 37 °C, 18 h
# Summary of the method: as §4
# CRAB strain AC5 = test: BPP-PNA MIC, broth microdilution; details: MHB without cation (Oxoid); 37 °C, 18 h
# Summary of the method: as §4
# CRAB strain AC1 = test: BPP-PNA MIC, broth microdilution; details: MHB without cation (Oxoid); 37 °C, 18 h
# Summary of the method: as §4
# CRAB strain AC3 = test: BPP-PNA MIC, broth microdilution; details: MHB without cation (Oxoid); 37 °C, 18 h
# Summary of the method: as §4
Substance,reduction in the level of the acpP mRNA [1] [fold],reduction in ftsZ mRNA [2],"MIC, AC6 (CRAB strain AC6) [µM]","MIC, AC9 (CRAB strain AC9) [µM]","MIC, AC7 (CRAB strain AC7) [µM]","MIC, AC8 (CRAB strain AC8) [µM]","MIC, AC4 (CRAB strain AC4) [µM]","MIC, AC5 (CRAB strain AC5) [µM]","MIC, AC1 (CRAB strain AC1) [µM]","MIC, AC3 (CRAB strain AC3) [µM]"
"H-(KFF)3K-eg1-TGATTTGCCAC-NH2 (antisense; N-terminal (KFF)3K-eg1 peptide, C-terminal amide, backbone not given here, further chemistry not given here) [PNA 5639, anti-acpP peptide-PNA conjugate, match, +1 to +11]",> 34,,,,,,,,,
"H-(KFF)3K-eg1-GAGGCCATGAC-NH2 (antisense; N-terminal (KFF)3K-eg1 peptide, C-terminal amide, backbone not given here, further chemistry not given here) [PNA 5612, anti-ftsZ peptide-PNA conjugate, match, −3 to +8]",,up to 60%,4,2,4,8,8,4,4,4
